Assay results from the supplement of paper PMC4862054.

Legend:
Conditions in all cases: incubation time: 72 h
[1] = test system: BT-474; experiment: drug sensitivity score (DSS), CellTiter-Blue viability (DSS (AUC-based score)); higher = stronger viability inhibition; extreme values may be limits of the assay
Experimental: (§1)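 DSRT with the CellTiter-Blue (resazurin reduction) viability readout, fluorescence 560/590 nm, 72 h incubation. Plates were normalised to DMSO and benzethonium chloride controls. DSS is computed from the area under the fitted dose-response curve (5 or 9 concentrations).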

[2] = test system: CAL-85-1; experiment: as above
Experimental: as §1

[3] = test system: HCC1937; experiment: as above
Experimental: as §1

[4] = test system: CAL-51; experiment: as above
Experimental: as §1

[5] = test system: CAL-148; experiment: as above
Experimental: as §1

[6] = test system: DU-4475; experiment: as above
Experimental: as §1

[7] = test system: SK-BR-3; experiment: as above
Experimental: as §1

[8] = test system: CAL-120; experiment: as above
Experimental: as §1

[9] = test system: MDA-MB-436; experiment: as above
Experimental: as §1

[10] = test system: HCC1599; experiment: as above
Experimental: as §1

[11] = test system: Hs578T; experiment: as above
Experimental: as §1

[12] = test system: CAL-85-1; experiment: drug sensitivity score (DSS), CellTox Green (DSS (AUC-based score)); higher = stronger drug effect (viability inhibition or cytotoxicity); extreme values may be limits of the assay
How it was run: (§2)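 Breast cancer cell lines, seeded as 20 µl suspension, were incubated 72 h with compound in 384-well plates at 5 concentrations in 10-fold steps over a 10,000-fold range set for each compound. Fluorescence from CellTox Green was read at 485/520 nm before CellTiter-Glo luminescence, which was read after 10 min at room temperature. Every plate was normalised to 0.1 % DMSO and a positive kill control, and the drug sensitivity score was taken from the area under the fitted dose-response curve.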

[13] = test system: HCC1937; experiment: as above
How it was run: as §2

[14] = test system: MCF-10A; experiment: as above
How it was run: as §2

[15] = test system: CAL-51; experiment: as above
How it was run: as §2

[16] = test system: MDA-MB-453; experiment: as above
How it was run: as §2

[17] = test system: MDA-MB-468; experiment: as above
How it was run: as §2

[18] = test system: HCC1143; experiment: as above
How it was run: as §2

[19] = test system: HDQ-P1; experiment: as above
How it was run: as §2

[20] = test system: MDA-MB-231; experiment: as above
How it was run: as §2

[21] = test system: MFM-223; experiment: as above
How it was run: as §2

[22] = test system: BT-549; experiment: as above
How it was run: as §2

[23] = test system: DU-4475; experiment: as above
How it was run: as §2

[24] = test system: CAL-120; experiment: as above
How it was run: as §2

[25] = test system: MDA-MB-436; experiment: as above
How it was run: as §2

[26] = test system: Hs578T; experiment: as above
How it was run: as §2

Compound	drug sensitivity score [1]	drug sensitivity score [2]	drug sensitivity score [3]	drug sensitivity score [4]	drug sensitivity score [5]	drug sensitivity score [6]	drug sensitivity score [7]	drug sensitivity score [8]	drug sensitivity score [9]	drug sensitivity score [10]	drug sensitivity score [11]	drug sensitivity score [12]	drug sensitivity score [13]	drug sensitivity score [14]	drug sensitivity score [15]	drug sensitivity score [16]	drug sensitivity score [17]	drug sensitivity score [18]	drug sensitivity score [19]	drug sensitivity score [20]	drug sensitivity score [21]	drug sensitivity score [22]	drug sensitivity score [23]	drug sensitivity score [24]	drug sensitivity score [25]	drug sensitivity score [26]
CN(C)/N=N/c1[nH]cnc1C(N)=O [Dacarbazine]	0	0	0	0	0	0	0	0	0	0	0	0	3.14	0	0	0	0	0	0	0	0	0	0	0	0	0
CCC1(c2ccc(N)cc2)CCC(=O)NC1=O (configuration not stated) [Aminoglutethimide]	0	0	0	0	0	0	0	0	0	0	0	0	0	0	0	0	0	0	0	0	0	0	0	0	0	0
Clc1ccc(Nc2nnc(Cc3ccncc3)c3ccccc23)cc1 [Vatalanib]	0	0	0	0	0	0	0	0	0	0	0	0	0	2.74	0	0	0	0	0	0	0	0	0	0	0	0
N[C@@H](CSC(c1ccccc1)(c1ccccc1)c1ccccc1)C(=O)O [S-trityl-L-cysteine]	4.93	0	16.4	0	0	0	15.5	10.4	4.31	0	12.9	0	3.46	0	0	0	0	0	0	0	0	0	0	0	0	0
Cc1ccc(-n2nc(C(C)(C)C)cc2NC(=O)Nc2ccc(OCCN3CCOCC3)c3ccccc23)cc1 [Doramapimod]	0	6.15	0	0	0	0	0	0	0	0	0	0	0	0	0	0	0	0	0	0	0	0	0	0	2.62	3.19
CO[C@H]1/C=C\C=C(/C)C(=O)NC2=CC(=O)C(NCCN(C)C)=C(C[C@@H](C)C[C@H](OC)[C@H](O)[C@@H](C)/C=C(\C)[C@@H]1OC(N)=O)C2=O [Alvespimycin]	14.6	13.7	17.2	14	16.9	21.9	20.9	15.3	16.1	10.5	16.5	6.41	1.6	13	6.02	0.783	1.6	9.99	4.4	7.29	0	0	4.5	0.117	0	7.05
COc1cc([C@@H]2c3cc4c(cc3[C@@H](O[C@@H]3O[C@@H]5CO[C@@H](C)O[C@H]5[C@H](O)[C@H]3O)[C@H]3COC(=O)[C@H]23)OCO4)cc(OC)c1O [Etoposide]	0.298	2.33	6.25	14.5	10.3	19.8	11.9	4.94	3.41	2.06	5.23	1.64	0	0	9.25	0	7.2	0	0	0	0	0	0.895	1.57	0	20.3
CN(N=O)C(=O)N[C@@H](C=O)[C@@H](O)[C@H](O)[C@H](O)CO [Streptozocin]	0	0	3.78	0	0	0	0	0	0	0	0	0	0	0	0	0	3.14	0	0	0	0	0	0	0	0	0
CC1(C)NC(=O)N(c2ccc([N+](=O)[O-])c(C(F)(F)F)c2)C1=O [Nilutamide]	0	0	0	0	0	0	0	0	0	0	0	0	0	0	0	0	0		0	0	0	0	0	0	0	0
Oc1nc(-c2ccc(C(F)(F)F)cc2)nc2c1CSCC2 [XAV-939]	0	0	0	0	0	0	0	0	0	0	0	0	0	0	0	0	0	0	3.77	0	0	0	0	0	0	3.23
CCC1=C[C@@H]2CN(C1)Cc1c([nH]c3ccccc13)[C@@](C(=O)OC)(c1cc3c(cc1OC)N(C)[C@H]1[C@@](O)(C(=O)OC)[C@H](OC(C)=O)[C@]4(CC)C=CCN5CC[C@]31[C@@H]54)C2 [Vinorelbine]	16.1	20.9	25.3	19.6	22.5	15.8	26	24.4	16.5	9.76	24.6	11.7	0	23.7	24.9	0	5.08	0	0	18.1	12.7	4.21	0	1.84	3.27	23.3
CN[C@@H]1C[C@H]2O[C@@](C)([C@@H]1OC)n1c3ccccc3c3c4c(c5c6ccccc6n2c5c31)C(=O)N[C@H]4O [UCN-01]	12.2	17.3	20	20.4	7	19.5	23	24.2	12.4	17	29.2	20.2	0	21.6	17	1.04	0	8.74	14.7	19	6.67	9.46	4.48	9.11	0	17.7
COc1cc2nccc(Oc3ccc(NC(=O)C4(C(=O)Nc5ccc(F)cc5)CC4)cc3)c2cc1OC [Cabozantinib]	0	0	0	0	0.402	0	0	0	0	0	0	0	0	0	0	0	0	0	0	0	0	0	0	0	0	0
